Experimental data from the supplement of paper PMC10307832.

Legend:
Assay in all cases: relative viability (nuclei count vs DMSO), 5 days (fraction); higher = more cells survive
[1] = tested on: NCI-H2126
Outline: (§1)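 Lung cancer cell lines in 1536-well plates were dosed by pin tool the day after seeding, either with one drug alone or with a fixed anchor-drug dose plus five library-drug doses (not always all listed) in √10 steps. After 5 days, cells were fixed and their nuclei stained in one step (final 0.05% Triton X-100, 1% formaldehyde, 1 ug/ml Hoechst), then counted on 4× images. Relative viability is the nuclei count in treated wells divided by that in vehicle wells. Values are medians of duplicate plates.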

[2] = tested on: NCI-H1975
Outline: as §1

[3] = tested on: NCI-H838
Outline: as §1

[4] = tested on: LCLC-103H
Outline: as §1

[5] = tested on: A-427
Outline: as §1

[6] = tested on: NCI-H460
Outline: as §1

[7] = tested on: ABC-1
Outline: as §1

[8] = tested on: HARA
Outline: as §1

[9] = tested on: NCI-H647
Outline: as §1

[10] = tested on: RERF-LC-KJ
Outline: as §1

[11] = tested on: NCI-H1944
Outline: as §1

[12] = tested on: SW 900
Outline: as §1

[13] = tested on: NCI-H1734
Outline: as §1

[14] = tested on: LOU-NH91
Outline: as §1

[15] = tested on: CAL-12T
Outline: as §1

[16] = tested on: NCI-H727
Outline: as §1

[17] = tested on: NCI-H1651
Outline: as §1

[18] = tested on: NCI-H1666
Outline: as §1

[19] = tested on: NCI-H596
Outline: as §1

[20] = tested on: BEN
Outline: as §1

[21] = tested on: NCI-H2085
Outline: as §1

SMILES: Cc1csc(=NC2CCCCC2)n1/N=C/c1ccc(O)c(O)c1O [MIM1] + NC(=O)Nc1cc(-c2cccc(F)c2)sc1C(=O)N[C@H]1CCCNC1 [AZD7762] (partner 0.2 µM)
- relative viability ([1]; first compound 0.2 µM): 0.934
- relative viability ([1]; first compound 0.6325 µM): 0.985
- relative viability ([1]; first compound 2 µM): 1.07
- relative viability ([1]; first compound 6.325 µM): 0.913
- relative viability ([1]; first compound 20 µM): 0.786
- relative viability ([2]; first compound 0.2 µM): 0.765
- relative viability ([2]; first compound 0.6325 µM): 0.628
- relative viability ([2]; first compound 2 µM): 0.697
- relative viability ([2]; first compound 6.325 µM): 0.549
- relative viability ([2]; first compound 20 µM): 0.572
- relative viability ([3]; first compound 0.2 µM): 0.868
- relative viability ([3]; first compound 0.6325 µM): 0.947
- relative viability ([3]; first compound 2 µM): 0.751
- relative viability ([3]; first compound 6.325 µM): 0.84
- relative viability ([3]; first compound 20 µM): 0.691
- relative viability ([4]; first compound 0.2 µM): 0.691
- relative viability ([4]; first compound 0.6325 µM): 0.79
- relative viability ([4]; first compound 2 µM): 0.759
- relative viability ([4]; first compound 6.325 µM): 0.698
- relative viability ([4]; first compound 20 µM): 0.399
- relative viability ([5]; first compound 0.2 µM): 0.706
- relative viability ([5]; first compound 0.6325 µM): 0.7
- relative viability ([5]; first compound 2 µM): 0.651
- relative viability ([5]; first compound 6.325 µM): 0.525
- relative viability ([5]; first compound 20 µM): 0.395
- relative viability ([6]; first compound 0.2 µM): 0.538
- relative viability ([6]; first compound 0.6325 µM): 0.629
- relative viability ([6]; first compound 2 µM): 0.526
- relative viability ([6]; first compound 6.325 µM): 0.251
- relative viability ([6]; first compound 20 µM): 0.0582
- relative viability ([7]; first compound 0.2 µM): 0.664
- relative viability ([7]; first compound 0.6325 µM): 0.896
- relative viability ([7]; first compound 2 µM): 0.814
- relative viability ([7]; first compound 6.325 µM): 0.788
- relative viability ([7]; first compound 20 µM): 0.341
- relative viability ([8]; first compound 0.2 µM): 0.345
- relative viability ([8]; first compound 0.6325 µM): 0.412
- relative viability ([8]; first compound 2 µM): 0.189
- relative viability ([8]; first compound 6.325 µM): 0.219
- relative viability ([8]; first compound 20 µM): 0.148
- relative viability ([9]; first compound 0.2 µM): 0.502
- relative viability ([9]; first compound 0.6325 µM): 0.379
- relative viability ([9]; first compound 6.325 µM): 0.409
- relative viability ([9]; first compound 20 µM): 0.073
- relative viability ([10]; first compound 0.2 µM): 0.957
- relative viability ([10]; first compound 0.6325 µM): 0.917
- relative viability ([10]; first compound 2 µM): 0.818
- relative viability ([10]; first compound 6.325 µM): 0.687
- relative viability ([10]; first compound 20 µM): 0.17
- relative viability ([11]; first compound 0.2 µM): 0.511
- relative viability ([11]; first compound 0.6325 µM): 0.479
- relative viability ([11]; first compound 2 µM): 0.475
- relative viability ([11]; first compound 6.325 µM): 0.397
- relative viability ([11]; first compound 20 µM): 0.243
- relative viability ([12]; first compound 0.2 µM): 0.669
- relative viability ([12]; first compound 0.6325 µM): 0.615
- relative viability ([12]; first compound 2 µM): 0.592
- relative viability ([12]; first compound 6.325 µM): 0.296
- relative viability ([12]; first compound 20 µM): 0.19
- relative viability ([13]; first compound 0.2 µM): 0.524
- relative viability ([13]; first compound 0.6325 µM): 0.467
- relative viability ([13]; first compound 2 µM): 0.492
- relative viability ([13]; first compound 6.325 µM): 0.417
- relative viability ([13]; first compound 20 µM): 0.158
- relative viability ([14]; first compound 0.2 µM): 0.731
- relative viability ([14]; first compound 0.6325 µM): 0.779
- relative viability ([14]; first compound 2 µM): 0.677
- relative viability ([14]; first compound 6.325 µM): 0.637
- relative viability ([14]; first compound 20 µM): 0.279
- relative viability ([15]; first compound 0.2 µM): 0.527
- relative viability ([15]; first compound 0.6325 µM): 0.575
- relative viability ([15]; first compound 2 µM): 0.605
- relative viability ([15]; first compound 6.325 µM): 0.436
- relative viability ([15]; first compound 20 µM): 0.332
- relative viability ([16]; first compound 0.2 µM): 0.663
- relative viability ([16]; first compound 0.6325 µM): 0.573
- relative viability ([16]; first compound 2 µM): 0.435
- relative viability ([16]; first compound 6.325 µM): 0.528
- relative viability ([16]; first compound 20 µM): 0.348
- relative viability ([17]; first compound 0.2 µM): 0.464
- relative viability ([17]; first compound 0.6325 µM): 0.434
- relative viability ([17]; first compound 2 µM): 0.425
- relative viability ([17]; first compound 6.325 µM): 0.429
- relative viability ([17]; first compound 20 µM): 0.503
- relative viability ([18]; first compound 0.2 µM): 0.862
- relative viability ([18]; first compound 0.6325 µM): 0.789
- relative viability ([18]; first compound 2 µM): 0.829
- relative viability ([18]; first compound 6.325 µM): 0.7
- relative viability ([18]; first compound 20 µM): 0.519
- relative viability ([19]; first compound 0.2 µM): 1.17
- relative viability ([19]; first compound 0.6325 µM): 1.22
- relative viability ([19]; first compound 2 µM): 1.03
- relative viability ([19]; first compound 6.325 µM): 1.11
- relative viability ([19]; first compound 20 µM): 0.819
- relative viability ([20]; first compound 0.2 µM): 0.781
- relative viability ([20]; first compound 0.6325 µM): 0.645
- relative viability ([20]; first compound 2 µM): 0.67
- relative viability ([20]; first compound 6.325 µM): 0.707
- relative viability ([20]; first compound 20 µM): 0.336
- relative viability ([21]; first compound 0.2 µM): 1
- relative viability ([21]; first compound 0.6325 µM): 0.963
- relative viability ([21]; first compound 2 µM): 1.07
- relative viability ([21]; first compound 6.325 µM): 0.766
- relative viability ([21]; first compound 20 µM): 0.775
